# In patent EP0093484A2, “Antibacterial monic acid derivatives” (BEECHAM GROUP PLC, priority 1982, dated 1983):
# Read-outs that look alike come from different tables or passages of the source.
# Assays:
# M. suipneumoniae NB12 = assay: Anti-mycoplasmal activity, MIC in Friis broth agarose; format: cell-based; settings: Friis broth solidified with 0.9% agarose, 6 days incubation at 37°C
# M. suipneumoniae JF 435 = assay: as above; format: cell-based; settings: Friis broth solidified with 0.9% agarose, 6 days incubation at 37°C
# M. suipneumoniae Str. 11 = assay: as above; format: cell-based; settings: Friis broth solidified with 0.9% agarose, 6 days incubation at 37°C
# [1] = test system: M. suipneumoniae J2206/183b; assay: as above; format: cell-based; settings: Friis broth solidified with 0.9% agarose, 6 days incubation at 37°C
# M. suipneumoniae MS16 = assay: as above; format: cell-based; settings: Friis broth solidified with 0.9% agarose, 6 days incubation at 37°C
# [2] = test system: M. suipneumoniae ATCC 25095; assay: as above; format: cell-based; settings: Friis broth solidified with 0.9% agarose, 6 days incubation at 37°C
# M. hyorhinis ATCC 23234 = assay: as above; format: cell-based; settings: Friis broth solidified with 0.9% agarose, 6 days incubation at 37°C
# M. hyorhinis ATCC 25021 = assay: as above; format: cell-based; settings: Friis broth solidified with 0.9% agarose, 6 days incubation at 37°C
# M. bovis NCTC 10131 = assay: microbe, parasite or virus in culture; format: cell-based
# [3] = test system: M. bovigenitalium ATCC 14173; assay: Anti-mycoplasmal activity, MIC in Friis broth agarose; format: cell-based; settings: Friis broth solidified with 0.9% agarose, 6 days incubation at 37°C
# M. dispar NCTC 10125 = assay: as above; format: cell-based; settings: Friis broth solidified with 0.9% agarose, 6 days incubation at 37°C
# M. gallisepticum S6 = assay: as above; format: cell-based; settings: Friis broth solidified with 0.9% agarose, 6 days incubation at 37°C
# E. coli NCTC 10418 [4] = assay: Human bacteria, MIC by serial dilution in nutrient agar; format: cell-based; settings: E. coli NCTC 10418 (human panel), nutrient agar with 5% chocolated horse blood, 18 hours at 37°C
# E. coli ESS = assay: as above; format: cell-based; settings: nutrient agar with 5% chocolated horse blood, 18 hours at 37°C
# P. mirabilis 889 = assay: as above; format: cell-based; settings: nutrient agar with 5% chocolated horse blood, 18 hours at 37°C
# K. aerogenes A = assay: as above; format: cell-based; settings: nutrient agar with 5% chocolated horse blood, 18 hours at 37°C
# [5] = test system: Pasteurella multocida 1633; assay: as above; format: cell-based; settings: nutrient agar with 5% chocolated horse blood, 18 hours at 37°C
# [6] = test system: Haemophilus influenzae Wy21; assay: as above; format: cell-based; settings: nutrient agar with 5% chocolated horse blood, 18 hours at 37°C
# [7] = test system: Neisseria catarrhalis 1502; assay: as above; format: cell-based; settings: nutrient agar with 5% chocolated horse blood, 18 hours at 37°C
# Bacillus subtilis 6633 = assay: as above; format: cell-based; settings: nutrient agar with 5% chocolated horse blood, 18 hours at 37°C
# [8] = test system: Corynebacterium xerosis 9755; assay: as above; format: cell-based; settings: nutrient agar with 5% chocolated horse blood, 18 hours at 37°C
# Staph. aureus Russell = assay: as above; format: cell-based; settings: nutrient agar with 5% chocolated horse blood, 18 hours at 37°C
# Staph. aureus W2827 = assay: as above; format: cell-based; settings: nutrient agar with 5% chocolated horse blood, 18 hours at 37°C
# Strep. faecalis I = assay: as above; format: cell-based; settings: nutrient agar with 5% chocolated horse blood, 18 hours at 37°C
# [9] = test system: Strep. pyogenes R80/421-A; assay: as above; format: cell-based; settings: nutrient agar with 5% chocolated horse blood, 18 hours at 37°C
# Strep. spp. 64/848-C = assay: as above; format: cell-based; settings: nutrient agar with 5% chocolated horse blood, 18 hours at 37°C
# Strep. pneumoniae CN33 = assay: as above; format: cell-based; settings: nutrient agar with 5% chocolated horse blood, 18 hours at 37°C
# E. coli NCTC 10418 [10] = assay: Veterinary bacteria, MIC by two fold serial dilution in agar
# Protocol: (§1) The activity of the compounds of the Examples against various organisms important in veterinary infections was determined using two fold serial dilutions in Diagnostic Sensitivity Test Agar inoculated with 10^4 organisms.
# E. coli E1 = assay: as above
# Protocol: as §1
# S. dublin S7 = assay: as above
# Protocol: as §1
# S. typhimurium S18 = assay: as above
# Protocol: as §1
# Bord. bronchiseptica BO9 = assay: as above
# Protocol: as §1
# Past. multocida PA1 = assay: as above
# Protocol: as §1
# Past. haemolytica PA5 = assay: as above
# Protocol: as §1
# [11] = test system: Erysipelothrix rhusiopathiae NCTC 8163; assay: as above
# Protocol: as §1
# [12] = test system: Corynebacterium pyogenes CY1; assay: as above
# Protocol: as §1
# [13] = test system: Staph. aureus B4 (pen. resistant); assay: as above
# Protocol: as §1
# Strep. dysgalactiae SPD1 = assay: as above
# Protocol: as §1
# [14] = test system: Haemophilus influenzae Q1; assay: Human bacteria, MIC by serial dilution in nutrient agar; format: cell-based; settings: nutrient agar with 5% chocolated horse blood, 18 hours at 37°C, read-out: MIC
# Sarcina lutea 8340 = assay: as above; format: cell-based; settings: Micrococcus luteus, nutrient agar with 5% chocolated horse blood, 18 hours at 37°C, read-out: MIC
# Past. multocida PA2 = assay: Veterinary bacteria, MIC by two fold serial dilution in agar; settings: Pasteurella multocida, PA2, 18 h
# Protocol: as §1
# [15] = Mesomycoplasma hyopneumoniae, 144 h, read-out: MIC
# [16] = Staphylococcus aureus, read-out: MIC
molecule,measurement,setting,value
1-(p-Methylsulfinylphenyl)ethyl monate A [Example 8],MIC,M. suipneumoniae NB12,2.5 µg/mL
same,MIC,M. suipneumoniae JF 435,2.5 µg/mL
same,MIC,M. suipneumoniae Str. 11,1.0 µg/mL
same,MIC,[1],2.5 µg/mL
same,MIC,M. suipneumoniae MS16,1.0 µg/mL
same,MIC,[2],2.5 µg/mL
same,MIC,M. hyorhinis ATCC 23234,1.0 µg/mL
same,MIC,M. hyorhinis ATCC 25021,1.0 µg/mL
same,MIC,"M. bovis NCTC 10131; M. bovis NCTC 10131, Friis broth solidified with 0.9% agarose, 6 days incubation at 37°C",.025 µg/mL
same,MIC,[3],0.1 µg/mL
same,MIC,M. dispar NCTC 10125,0.5 µg/mL
same,MIC,M. gallisepticum S6,10 µg/mL
same,MIC,E. coli NCTC 10418 [4],>128 µg/mL
same,MIC,E. coli ESS,4.0 µg/mL
same,MIC,P. mirabilis 889,>128 µg/mL
same,MIC,K. aerogenes A,>128 µg/mL
same,MIC,[5],8.0 µg/mL
same,MIC,[6],1.0 µg/mL
same,MIC,[7],4.0 µg/mL
same,MIC,Bacillus subtilis 6633,4.0 µg/mL
same,MIC,[8],>128 µg/mL
same,MIC,Staph. aureus Russell,32 µg/mL
same,MIC,Staph. aureus W2827,32 µg/mL
same,MIC,Strep. faecalis I,>128 µg/mL
same,MIC,[9],2.0 µg/mL
same,MIC,Strep. spp. 64/848-C,4.0 µg/mL
same,MIC,Strep. pneumoniae CN33,8.0 µg/mL
same,MIC,"E. coli NCTC 10418 [10]; E. coli NCTC 10418 (veterinary panel), Diagnostic Sensitivity Test Agar, 18 hours at 37°C",>80 µg/mL
same,MIC,"E. coli E1; E. coli E1, Diagnostic Sensitivity Test Agar, 18 hours at 37°C",>80 µg/mL
same,MIC,"S. dublin S7; S. dublin S7, Diagnostic Sensitivity Test Agar, 18 hours at 37°C",>80 µg/mL
same,MIC,"S. typhimurium S18; S. typhimurium S18, Diagnostic Sensitivity Test Agar, 18 hours at 37°C",>80 µg/mL
same,MIC,"Bord. bronchiseptica BO9; Bord. bronchiseptica BO9, Diagnostic Sensitivity Test Agar, 18 hours at 37°C",>80 µg/mL
same,MIC,"Past. multocida PA1; Past. multocida PA1, Diagnostic Sensitivity Test Agar, 18 hours at 37°C",10 µg/mL
same,MIC,"Past. haemolytica PA5; Past. haemolytica PA5, Diagnostic Sensitivity Test Agar, 18 hours at 37°C",80 µg/mL
same,MIC,"[11]; Erysipelothrix rhusiopathiae NCTC 8163, Diagnostic Sensitivity Test Agar, 18 hours at 37°C",>80 µg/mL
same,MIC,"[12]; Corynebacterium pyogenes CY1, Diagnostic Sensitivity Test Agar, 18 hours at 37°C",>80 µg/mL
same,MIC,"[13]; Staph. aureus B4 (pen. resistant), Diagnostic Sensitivity Test Agar, 18 hours at 37°C",20 µg/mL
same,MIC,"Strep. dysgalactiae SPD1; Strep. dysgalactiae SPD1, Diagnostic Sensitivity Test Agar, 18 hours at 37°C",2.5 µg/mL
"CC(=CC(=O)OCc1cccc([S+](C)[O-])c1)CC1OCC(CC2OC2C(C)C(C)O)C(O)C1O (centres unmarked) [Example 6, m-Methylsulfinylbenzyl monate A]",MIC,M. suipneumoniae NB12; [15],5 µg/mL
same,MIC,"M. suipneumoniae JF 435; Mesomycoplasma hyopneumoniae, JF435, 144 h, read-out: MIC",10 µg/mL
same,MIC,M. suipneumoniae Str. 11; [15],5 µg/mL
same,MIC,[1]; [15],10 µg/mL
same,MIC,M. suipneumoniae MS16; [15],5 µg/mL
same,MIC,"[2]; Mesomycoplasma hyopneumoniae, ATCC25095, 144 h, read-out: MIC",5 µg/mL
same,MIC,"M. hyorhinis ATCC 23234; Mesomycoplasma hyorhinis, ATCC23234, 144 h, read-out: MIC",5 µg/mL
same,MIC,"M. hyorhinis ATCC 25021; Mesomycoplasma hyorhinis, ATCC25021, 144 h, read-out: MIC",5 µg/mL
same,MIC,"M. bovis NCTC 10131; NCTC10131, 144 h",0.25 µg/mL
same,MIC,"[3]; 144 h, read-out: MIC",0.25 µg/mL
same,MIC,"M. dispar NCTC 10125; 144 h, read-out: MIC",2.5 µg/mL
same,MIC,"M. gallisepticum S6; Mycoplasmoides gallisepticum, 144 h, read-out: MIC",> 10 µg/mL
same,MIC,"E. coli NCTC 10418 [4]; Escherichia coli, NCTC10418, read-out: MIC",> 100 µg/mL
same,MIC,"E. coli ESS; Escherichia coli, read-out: MIC",25 µg/mL
same,MIC,"P. mirabilis 889; Proteus mirabilis, read-out: MIC",> 100 µg/mL
same,MIC,"K. aerogenes A; Klebsiella aerogenes, read-out: MIC",> 100 µg/mL
same,MIC,[5]; read-out: MIC,25 µg/mL
same,MIC,[14],2.5 µg/mL
same,MIC,[6]; read-out: MIC,2.5 µg/mL
same,MIC,[7]; read-out: MIC,12.5 µg/mL
same,MIC,Bacillus subtilis 6633; read-out: MIC,12.5 µg/mL
same,MIC,[8]; read-out: MIC,> 100 µg/mL
same,MIC,Sarcina lutea 8340,> 100 µg/mL
same,MIC,Staph. aureus Russell; [16],12.5 µg/mL
same,MIC,Staph. aureus W2827; [16],12.5 µg/mL
same,MIC,"Strep. faecalis I; Enterococcus faecalis, read-out: MIC",> 100 µg/mL
same,MIC,"Strep. pneumoniae CN33; Streptococcus pneumoniae, read-out: MIC",25 µg/mL
same,MIC,"E. coli NCTC 10418 [10]; Escherichia coli, NCTC10418, 18 h",> 80 µg/mL
same,MIC,"E. coli E1; Escherichia coli, E1, 18 h",> 80 µg/mL
same,MIC,"S. dublin S7; Salmonella enterica, S7, 18 h",> 80 µg/mL
same,MIC,"S. typhimurium S18; Salmonella enterica, TYPHIMURIUM, 18 h",> 80 µg/mL
same,MIC,"Bord. bronchiseptica BO9; Bordetella bronchiseptica, BO9, 18 h",> 80 µg/mL
same,MIC,"Past. multocida PA1; Pasteurella multocida, PA1, 18 h",80 µg/mL
same,MIC,Past. multocida PA2,20 µg/mL
same,MIC,"Past. haemolytica PA5; Mannheimia haemolytica, PA5, 18 h",80 µg/mL
same,MIC,"[11]; Erysipelothrix rhusiopathiae, NCTC8163, 18 h",> 80 µg/mL
same,MIC,"[12]; CY1, 18 h",> 80 µg/mL
same,MIC,"[13]; Staphylococcus aureus, 18 h",5 µg/mL
same,MIC,"Strep. dysgalactiae SPD1; Streptococcus dysgalactiae, SPD1, 18 h",20 µg/mL
